Columns and labels:
[1] = target: T1, Protein deacetylase HDAC6 (Homo sapiens, UniProt Q9UBN7); assay: Inhibition of human recombinant HDAC6 using ArgHisLysLys(Ac) as substrate by fluorescence based analysis
T1 sequence (Q9UBN7 whole entry): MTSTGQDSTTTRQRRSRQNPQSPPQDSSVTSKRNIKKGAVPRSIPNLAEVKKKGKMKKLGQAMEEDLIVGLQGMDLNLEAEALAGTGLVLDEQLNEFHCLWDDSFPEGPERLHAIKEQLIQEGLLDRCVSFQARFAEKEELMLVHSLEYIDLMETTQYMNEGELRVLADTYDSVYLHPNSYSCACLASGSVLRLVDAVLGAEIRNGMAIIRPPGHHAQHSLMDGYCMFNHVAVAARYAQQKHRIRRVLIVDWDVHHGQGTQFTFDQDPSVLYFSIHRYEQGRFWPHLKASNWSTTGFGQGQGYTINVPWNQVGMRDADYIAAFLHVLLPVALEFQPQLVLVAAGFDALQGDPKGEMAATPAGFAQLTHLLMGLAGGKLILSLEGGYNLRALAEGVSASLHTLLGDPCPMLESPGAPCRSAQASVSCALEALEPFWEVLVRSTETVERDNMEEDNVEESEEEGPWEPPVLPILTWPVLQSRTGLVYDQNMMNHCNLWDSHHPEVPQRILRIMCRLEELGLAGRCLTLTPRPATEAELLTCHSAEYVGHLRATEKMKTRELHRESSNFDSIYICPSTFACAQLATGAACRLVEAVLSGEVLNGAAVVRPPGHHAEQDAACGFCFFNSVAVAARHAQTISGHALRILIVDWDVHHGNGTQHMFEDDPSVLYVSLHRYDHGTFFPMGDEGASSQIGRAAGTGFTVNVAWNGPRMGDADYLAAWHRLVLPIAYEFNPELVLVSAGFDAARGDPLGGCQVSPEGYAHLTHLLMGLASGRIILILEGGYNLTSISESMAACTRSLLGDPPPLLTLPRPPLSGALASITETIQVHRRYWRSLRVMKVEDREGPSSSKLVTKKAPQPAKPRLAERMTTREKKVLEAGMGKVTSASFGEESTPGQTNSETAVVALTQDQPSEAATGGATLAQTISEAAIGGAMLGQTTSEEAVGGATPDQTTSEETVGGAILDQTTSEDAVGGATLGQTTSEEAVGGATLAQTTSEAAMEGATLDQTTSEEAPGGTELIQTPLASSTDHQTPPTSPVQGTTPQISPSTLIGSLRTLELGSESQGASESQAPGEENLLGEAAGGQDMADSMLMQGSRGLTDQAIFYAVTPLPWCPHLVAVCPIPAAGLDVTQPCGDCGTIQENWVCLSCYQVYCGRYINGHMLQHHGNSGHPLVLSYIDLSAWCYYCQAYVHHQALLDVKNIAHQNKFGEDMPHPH

Histone deacetylase 9 = Histone deacetylase 9 (Homo sapiens, UniProt Q9UKV0); assay: Inhibition of human recombinant HDAC9 using ArgHisLysLys(Ac) as substrate by fluorescence based analysis
Histone deacetylase 7 = target: T2, Histone deacetylase 7 (Homo sapiens, UniProt Q8WUI4); assay: Inhibition of human recombinant HDAC7 using ArgHisLysLys(Ac) as substrate by fluorescence based analysis
T2 sequence (Q8WUI4 whole entry): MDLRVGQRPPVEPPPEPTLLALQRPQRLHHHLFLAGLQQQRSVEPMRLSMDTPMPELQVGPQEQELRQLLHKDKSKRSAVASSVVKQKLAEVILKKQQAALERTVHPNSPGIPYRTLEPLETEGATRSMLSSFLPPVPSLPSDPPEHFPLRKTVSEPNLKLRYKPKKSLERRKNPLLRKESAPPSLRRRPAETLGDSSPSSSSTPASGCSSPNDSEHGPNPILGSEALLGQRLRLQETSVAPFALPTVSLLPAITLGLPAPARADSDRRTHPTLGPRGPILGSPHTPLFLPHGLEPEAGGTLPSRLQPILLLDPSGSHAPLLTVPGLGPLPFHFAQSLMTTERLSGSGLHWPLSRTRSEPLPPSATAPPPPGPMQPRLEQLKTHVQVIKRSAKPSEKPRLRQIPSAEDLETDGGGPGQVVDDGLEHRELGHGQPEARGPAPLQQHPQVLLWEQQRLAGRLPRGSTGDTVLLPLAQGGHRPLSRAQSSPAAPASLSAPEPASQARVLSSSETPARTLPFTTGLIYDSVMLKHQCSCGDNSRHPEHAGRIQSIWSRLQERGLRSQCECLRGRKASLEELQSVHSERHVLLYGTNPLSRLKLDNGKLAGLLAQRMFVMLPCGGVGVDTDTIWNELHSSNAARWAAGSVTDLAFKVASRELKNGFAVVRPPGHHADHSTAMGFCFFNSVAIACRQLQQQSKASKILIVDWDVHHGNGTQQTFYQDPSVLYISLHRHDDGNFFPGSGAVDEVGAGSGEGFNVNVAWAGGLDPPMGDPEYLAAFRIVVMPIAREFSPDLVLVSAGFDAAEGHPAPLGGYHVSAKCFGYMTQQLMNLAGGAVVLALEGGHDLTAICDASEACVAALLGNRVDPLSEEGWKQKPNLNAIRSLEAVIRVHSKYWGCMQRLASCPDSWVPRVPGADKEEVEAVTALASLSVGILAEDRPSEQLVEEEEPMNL

Sequence of Histone deacetylase 9 (Q9UKV0 whole entry): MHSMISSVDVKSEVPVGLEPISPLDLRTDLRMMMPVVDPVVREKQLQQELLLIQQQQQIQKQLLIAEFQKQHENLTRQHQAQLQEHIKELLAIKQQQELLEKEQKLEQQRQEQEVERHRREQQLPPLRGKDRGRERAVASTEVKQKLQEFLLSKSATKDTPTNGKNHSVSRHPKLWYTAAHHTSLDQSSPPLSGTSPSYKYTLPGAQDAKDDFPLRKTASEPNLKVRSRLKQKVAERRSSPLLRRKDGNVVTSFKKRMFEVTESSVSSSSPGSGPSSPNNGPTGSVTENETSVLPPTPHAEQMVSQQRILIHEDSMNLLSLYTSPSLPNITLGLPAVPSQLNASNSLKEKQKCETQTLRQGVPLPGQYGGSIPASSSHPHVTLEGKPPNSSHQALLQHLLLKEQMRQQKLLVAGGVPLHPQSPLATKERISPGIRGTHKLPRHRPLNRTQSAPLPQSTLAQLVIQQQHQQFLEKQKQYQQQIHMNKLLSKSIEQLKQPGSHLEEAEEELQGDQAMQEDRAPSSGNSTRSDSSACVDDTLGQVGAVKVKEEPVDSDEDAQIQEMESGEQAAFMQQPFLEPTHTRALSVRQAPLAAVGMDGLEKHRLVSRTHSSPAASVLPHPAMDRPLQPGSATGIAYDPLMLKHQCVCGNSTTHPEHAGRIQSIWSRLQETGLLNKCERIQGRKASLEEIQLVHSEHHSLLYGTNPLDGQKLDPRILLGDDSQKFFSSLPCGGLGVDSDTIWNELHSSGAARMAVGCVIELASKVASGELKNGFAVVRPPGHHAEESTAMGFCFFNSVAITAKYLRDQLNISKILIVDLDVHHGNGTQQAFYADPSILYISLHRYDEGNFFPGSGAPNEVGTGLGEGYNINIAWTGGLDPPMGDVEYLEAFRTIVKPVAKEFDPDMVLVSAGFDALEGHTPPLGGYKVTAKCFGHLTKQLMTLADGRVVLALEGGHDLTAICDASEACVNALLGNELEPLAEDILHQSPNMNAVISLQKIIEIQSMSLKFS

Compound	IC50 [1]	IC50 (Histone deacetylase 9)	IC50 (Histone deacetylase 7)
O=C(CCCCCC1CNC1=O)Nc1ccccc1 (configuration not stated)	74.5 µM	> 1000 µM	> 1000 µM
O=C(CCCCC[C@@H]1CN(O)C1=O)Nc1ccccc1	132 µM	> 1000 µM	> 1000 µM
Nc1ccccc1N1CC(CCCCCC(=O)Nc2ccccc2)C1=O (configuration not stated)	> 1000 µM	> 1000 µM	> 1000 µM
O=C(CCCCC[C@H]1CN(O)C1=O)Nc1ccccc1	174 µM	> 1000 µM	> 1000 µM

From ChEMBL document CHEMBL5352506, “The Zinc-Binding Group Effect: Lessons from Non-Hydroxamic Acid Vorinostat Analogs” (J Med Chem, 2023)
